Laboratory results from patent US8338173B2, “Preparation of antigen-presenting human γδ T cells and use in immunotherapy” (University College Cardiff Consultants Limited, priority 2005, dated 2012).

B1: Melan-A: melanocyte/melanoma-differentiation antigen (protein, UniProt Q16655 1-118, looked up)
Melanoma antigen recognized …: MPREDAHFIYGYPKKGHGHSYTTAEEAAGIGILTVILGVLLLIGCWYCRRRNGYRALMDKSLHVGTQCALTRRCPQEGFDHRDSKVSLQEKNCEPVVPNAPPAYEKLSAEQSPPPYSP

Key:
[1] = system: naïve CD4^+ αβ T cells; assay type: cell-based, human
[2] = system: M1p58-66-specific CD8^+ αβ T cell clone FLUMA55; assay type: cell-based, human
[3] = system: Vγ9Vδ2^+ T cells; test: Expression of cell surface APC markers during γδ T cell activation with inhibitors; details: FIG. 19 B
[4] = system: Melp26-35-specific, HLA-A2-restricted CD8^+ αβ T cell clone LAU 337; assay type: cell-based, human

| Molecule | Vβ2^+ (%) [1] | inhibition of M1 cross-presentation in γδ T-APCs and DCs [2] | responses to M1p58-66 pulsed APCs [2] | expression of cell surface APC markers (MHC II, CD71, CD80, CD86) after TCR-triggering [3] | IFN-γ production in Melp26-35-specific responder cell clones [4] |
| --- | --- | --- | --- | --- | --- |
| phytohemagglutinin [PHA] | 9% |  |  |  |  |
| CC(=O)N[C@@H](CSC(=O)[C@]1([C@@H](O)C(C)C)NC(=O)[C@H](C)[C@@H]1O)C(=O)O [lactacystin] |  | fully inhibited | only partially affected | inhibited |  |
| C[C@H]1CCC/C=C/[C@@H]2C[C@H](O)C[C@H]2[C@H](O)/C=C/C(=O)O1 [brefeldin A] |  | fully inhibited | only partially affected | inhibited |  |
| CCN(CC)CCCC(C)Nc1ccnc2cc(Cl)ccc12 (stereo not drawn) [chloroquin] |  | ≤ 50% |  |  |  |
| B1 |  |  |  |  | failed to induce IFN-γ production |
